Results as given in patent publication US20260356957A1, “METHODS FOR TREATMENT OF NON-SMALL CELL LUNG CANCER (NSCLC)” (Janssen Biotech, Inc., priority 2023, published 2026).

Experiment: MARIPOSA Phase 3, adverse events
Assay type: in vivo, human
From the text: • 1. […] Incidence and Severity of Adverse Events (AEs) [Time Frame: Up to approximately 60 months]. Incidence and severity of treatment emergent adverse events (TEAEs) will be reported. Any adverse event occurring at or after the initial administration of study treatment through the day of last dose plus 30 days, or until the start of subsequent anticancer therapy (if earlier), is considered to be treatment emergent. • 8. Number of Participants with Clinical Laboratory Abnormalities [Time Frame: Up to approximately 60 months]. Number of participants with clinical laboratory abnormalities (serum chemistry, hematology, blood coagulation, and urine samples) will be reported. • 9. Number of Participants with Vital Signs Abnormalities [Time Frame: Up to approximately 60 months]. Number of participants with vital signs abnormalities (temperature, heart rate, respiratory rate, oxygen saturation, blood pressure) will be reported. • 10. Number of Participants with Physical Examination Abnormalities [Time Frame: Up to approximately 60 months]. Number of participants with physical examination abnormalities will be reported. • 11. […] The NSCLC-SAQ contains 7 items that assess cough, pain, dyspnea, fatigue, and poor appetite over a 7-day recall period. Each multi-item scale and individual item will be summarized using count and percent by visit. • 15. […] EORTC-QLQ-C30 is a core 30-item questionnaire for evaluating the health-related quality of life (HRQOL) of participants participating in cancer clinical studies. • 16.

[1] = TEAE leading to dose reductions of any study agent
[2] = TEAE leading to interruptions of any study agent
[3] = adverse events, listed as osimertinib
[4] = pneumonitis and interstitial lung disease

Structure (SMILES): C=CC(=O)Nc1cc(Nc2nccc(-c3cn(C)c4ccccc34)n2)c(OC)cc1N(C)CCN(C)C [Osimertinib]
- Skin lesion [1]: 0 no. (%)
- Stomatitis [1]: 0 no. (%)
- Asthenia [2]: 1 (0.2) no. (%)
- COVID-19 [2]: 36 (8) no. (%)
- Deep vein thrombosis [2]: 2 (0.5) no. (%)
- Dermatitis acneiform [2]: 1 (0.2) no. (%)
- Diarrhea [2]: 6 (1) no. (%)
- Hypoalbuminemia [2]: 0 no. (%)
- Increased alanine aminotransferase [2]: 12 (3) no. (%)
- Increased aspartate aminotransferase [2]: 11 (3) no. (%)
- Increased γ-glutamyltransferase [2]: 5 (1) no. (%)
- Paronychia [2]: 4 (1) no. (%)
- Peripheral edema [2]: 0 no. (%)
- Pneumonia [2]: 18 (4) no. (%)
- Pulmonary embolism [2]: 9 (2) no. (%)
- Rash [2]: 4 (1) no. (%)
- Stomatitis [2]: 4 (1) no. (%)
- Any venous thromboembolism event leading to death (VTE): 2 (0.5) no. (%)
- Any venous thromboembolism event leading to discontinuation of any agent (VTE): 2 (0.5) no. (%)
- Any venous thromboembolism event, Grade 1 (VTE): 0 no. (%)
- Any venous thromboembolism event, Grade 2 (VTE): 24 (6) no. (%)
- Any venous thromboembolism event, Grade 3 (VTE): 12 (3) no. (%)
- Any venous thromboembolism event, Grade 4 (VTE): 1 (0.2) no. (%)
- Any venous thromboembolism event, Grade 5 (VTE): 2 (0.5) no. (%)
- Axillary vein thrombosis (VTE event): 0 no. (%)
- Deep vein thrombosis (VTE event): 11 (3) no. (%)
- Embolism (VTE event): 3 (1) no. (%)
- Embolism venous (VTE event): 1 (0.2) no. (%)
- Jugular vein thrombosis (VTE event): 0 no. (%)
- Pelvic venous thrombosis (VTE event): 1 (0.2) no. (%)
- Portal vein thrombosis (VTE event): 0 no. (%)
- Post thrombotic syndrome (VTE event): 0 no. (%)
- Pulmonary embolism (VTE event): 20 (5) no. (%)
- Pulmonary infarction (VTE event): 0 no. (%)
- Pulmonary thrombosis (VTE event): 1 (0.2) no. (%)
- Sigmoid sinus thrombosis (VTE event): 0 no. (%)
- Superficial vein thrombosis (VTE event): 0 no. (%)
- Superior sagittal sinus thrombosis (VTE event): 0 no. (%)
- Superior vena cava syndrome (VTE event): 1 (0.2) no. (%)
- Thrombophlebitis (VTE event): 4 (1) no. (%)
- Thrombosis (VTE event): 1 (0.2) no. (%)
- Vena cava thrombosis (VTE event): 0 no. (%)
- Venous thrombosis (VTE event): 1 (0.2) no. (%)
- Venous thrombosis limb (VTE event): 1 (0.2) no. (%)
- Any event leading to discontinuations of any study agent (adverse events): 58 (14) no. (%)
- Any event leading to interruptions of any study agent (adverse events): 165 (39) no. (%)
- Any event leading to reductions of any study agent (adverse events): 23 (5) no. (%)
- Any event resulting in death (adverse events): 31 (7) no. (%)
- Any serious event (adverse events): 143 (33) no. (%)
- Grade ≥3 (adverse events): 183 (43) no. (%)
- Any event (adverse events, safety population): 425 (99) no. (%)
- Any event leading to discontinuations of any study agent [3]: 58 (14%) no. (%)
- Any event leading to interruptions of any study agent [3]: 165 (39%) no. (%)
- Any event leading to reductions of any study agent [3]: 23 (5%) no. (%)
- Any event resulting in death [3]: 31 (7%) no. (%)
- Interstitial lung disease/pneumonitis (any grade, both groups): 3%
- Interstitial lung disease/pneumonitis, grade 3 or higher (both groups): 1%
- Adverse events of grade 3 or higher (in vivo): 43%
- Discontinuations of all agents due to treatment-related adverse events (in vivo): 3%
- Receiving anticoagulation at time of first VTE (in vivo): 0%
- Serious adverse events (in vivo): 33%
- Venous thromboembolic (VTE) events (in vivo): 9%
- VTE events in the first 4 months of treatment (of VTE events): 33%
- First bleeding event while on anticoagulants (on anticoagulants): 14 (3) no. (%)
- Recurrent venous thromboembolism event while on anticoagulants (on anticoagulants): 0 no. (%)
- Anticoagulation concomitant use (on study): 81 (19) no. (%)
- Interstitial lung disease, Duration of event, median no. of days (range) [4]: 20 (1-189) days
- Interstitial lung disease, No. of days to first onset, median (range) [4]: 115 (9-512) days
- Interstitial lung disease, No. of patients (%) [4]: 13 (3) no. (%)
- Alanine aminotransferase increased (serious TEAE): 6 (1) no. (%)
- COVID-19 (serious TEAE): 10 (2) no. (%)
- Cardiac failure (serious TEAE): 5 (1) no. (%)
- Deep vein thrombosis (serious TEAE): 2 (0.5) no. (%)
- Dyspnea (serious TEAE): 11 (3) no. (%)
- Hypoalbuminemia (serious TEAE): 0 no. (%)
- Hyponatremia (serious TEAE): 4 (1) no. (%)
- Infusion related reaction (serious TEAE): 0 no. (%)
- Interstitial lung disease (serious TEAE): 5 (1) no. (%)
- Pericardial effusion (serious TEAE): 5 (1) no. (%)
- Pleural effusion (serious TEAE): 17 (4) no. (%)
- Pneumonia (serious TEAE): 21 (5) no. (%)
- Pneumonitis (serious TEAE): 8 (2) no. (%)
- Pulmonary embolism (serious TEAE): 10 (2) no. (%)
- Rash (serious TEAE): 0 no. (%)
- Respiratory failure (serious TEAE): 2 (0.5) no. (%)
- Any event (treatment-related AE): 378 (88) no. (%)
- Any event resulting in death (treatment-related AE): 2 (0.5) no. (%)
- Any serious event (treatment-related AE): 24 (6) no. (%)
- Grade ≥3 (treatment-related AE): 59 (14) no. (%)
- Decreased appetite (treatment-related AE, All): 40 (9) no. (%)
- Dermatitis acneiform (treatment-related AE, All): 54 (13) no. (%)
- Diarrhea (treatment-related AE, All): 149 (35) no. (%)
- Dry skin (treatment-related AE, All): 54 (13) no. (%)
- Hypoalbuminemia (treatment-related AE, All): 11 (3) no. (%)
- Increased alanine aminotransferase (treatment-related AE, All): 38 (9) no. (%)
- Increased aspartate aminotransferase (treatment-related AE, All): 34 (8) no. (%)
- Infusion-related reaction (treatment-related AE, All): 0 no. (%)
- Nausea (treatment-related AE, All): 32 (7) no. (%)
- Paronychia (treatment-related AE, All): 115 (27) no. (%)
- Peripheral edema (treatment-related AE, All): 10 (2) no. (%)
- Pruritus (treatment-related AE, All): 63 (15) no. (%)
- Rash (treatment-related AE, All): 121 (28) no. (%)
- Stomatitis (treatment-related AE, All): 77 (18) no. (%)
- Thrombocytopenia (treatment-related AE, All): 75 (18) no. (%)
- Decreased appetite (treatment-related AE, Grade ≥3): 1 (0.2) no. (%)
- Dermatitis acneiform (treatment-related AE, Grade ≥3): 0 no. (%)
- Diarrhea (treatment-related AE, Grade ≥3): 2 (0.5) no. (%)
- Dry skin (treatment-related AE, Grade ≥3): 1 (0.2) no. (%)
- Hypoalbuminemia (treatment-related AE, Grade ≥3): 0 no. (%)
- Increased alanine aminotransferase (treatment-related AE, Grade ≥3): 4 (1) no. (%)
- Increased aspartate aminotransferase (treatment-related AE, Grade ≥3): 1 (0.2) no. (%)
- Infusion-related reaction (treatment-related AE, Grade ≥3): 0 no. (%)
- Nausea (treatment-related AE, Grade ≥3): 1 (0.2) no. (%)
- Paronychia (treatment-related AE, Grade ≥3): 2 (0.5) no. (%)
- Peripheral edema (treatment-related AE, Grade ≥3): 0 no. (%)
- Pruritus (treatment-related AE, Grade ≥3): 1 (0.2) no. (%)
- Rash (treatment-related AE, Grade ≥3): 3 (1) no. (%)
- Stomatitis (treatment-related AE, Grade ≥3): 1 (0.2) no. (%)
- Thrombocytopenia (treatment-related AE, Grade ≥3): 3 (1) no. (%)
